The target of one assay is T1, NAALADase (Homo sapiens, UniProt Q04609).
T1 construct: from tissue; host or cells: unspecified tissue
T1 sequence (Q04609 whole entry): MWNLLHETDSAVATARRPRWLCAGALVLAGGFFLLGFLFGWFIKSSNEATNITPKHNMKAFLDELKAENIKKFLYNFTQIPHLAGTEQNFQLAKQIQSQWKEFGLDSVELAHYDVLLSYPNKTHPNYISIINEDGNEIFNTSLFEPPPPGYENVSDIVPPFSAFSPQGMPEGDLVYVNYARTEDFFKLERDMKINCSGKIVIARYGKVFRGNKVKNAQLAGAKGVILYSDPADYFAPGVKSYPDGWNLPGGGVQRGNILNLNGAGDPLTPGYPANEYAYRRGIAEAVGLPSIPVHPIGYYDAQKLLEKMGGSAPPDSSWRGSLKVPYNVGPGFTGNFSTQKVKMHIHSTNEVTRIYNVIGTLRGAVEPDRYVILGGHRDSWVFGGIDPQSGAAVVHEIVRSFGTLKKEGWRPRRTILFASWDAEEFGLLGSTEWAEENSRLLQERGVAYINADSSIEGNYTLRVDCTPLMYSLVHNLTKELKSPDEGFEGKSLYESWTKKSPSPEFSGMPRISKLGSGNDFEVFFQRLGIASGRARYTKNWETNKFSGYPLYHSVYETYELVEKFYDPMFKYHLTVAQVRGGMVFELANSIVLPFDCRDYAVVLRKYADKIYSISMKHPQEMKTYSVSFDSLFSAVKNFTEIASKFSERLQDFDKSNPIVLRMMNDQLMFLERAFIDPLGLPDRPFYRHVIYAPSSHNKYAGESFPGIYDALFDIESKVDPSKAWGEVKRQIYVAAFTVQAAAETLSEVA
Put plainly: In vitro inhibition of NAALADase activity. The assay is classed as biochemical. The note with it: average IC50 values. On the procedure: Various compounds of the invention were tested for in vitro inhibition of NAALADase activity. The average IC50 values of the tested compounds are provided bewlow in Table II.
Protocol for Assaying In Vitro Inhibition of NAALADase Activity
The following were combined in assay tubes: 100 μL of 10 mM CoCl2, 250 μL of 200 mM Tris chloride, 100 μL tissue, 100 μL of 10 mM NAALADase inhibitor in Bakers H2O, and Bakers H2O to make a total volume of 950 μL. Each assay tube was then incubated for 10 minutes in a 37° C. water bath. 50 μL of 3-H-NAAG was then added to each assay tube and incubated for an additional 15 minutes in at 37° C. water bath. The assay was stopped by adding 1.0 ml of 0.1 M sodium phosphate.
Glutamate released by the action of the NAALADase enzyme was separated from the assay solution using an anion exchange resin. The resin was equilibrated to 25° C., 2.0 ml of the resin was added to a Pasteur pipette pre-loaded with a single glass bead, and each column was washed twice with distilled H2O. A column was placed over a scintillation vial and 200 μL of an assay sample was loaded onto the column. After draining, glutamate was eluted using two 1.0 ml washes of 1 M formic acid. After addition of 10 ml of scintillation cocktail, each sample was counted for 2 minutes on a scintillation counter.
As for `CC(C)(C)c1cc(CC(CCC(=O)NO)C(=O)O)cc(C(=O)O)c1` (stereo not drawn) [Compound 2, 3-tert-Butyl-5-(2-carboxy-4-hydroxycarbamoyl-butyl)-benzoic acid], the IC50 – broadly, the concentration needed to halve the response being measured – is 0.06 µM. Same read-out and setting: under `COC(=O)c1cccc(CC(C(=O)O)C(=O)NO)c1` (stereo not drawn) [Compound 10, 3-(2-Carboxy-2-hydroxycarbamoyl-ethyl)-benzoic acid methyl ester] stands 100 µM; under `O=C(CSCCCC(Cc1cccc(C(=O)O)c1)C(=O)O)NO` (stereo not drawn) [Compound 17, 3-(2-Carboxy-5-hydroxycarbamoylmethyl-sulfanylpentyl)-benzoic acid], 0.4 µM.

In the case of `CCC(SCCCC(Cc1cccc(C(=O)O)c1)C(=O)O)C(=O)NO` (stereo not drawn) [Compound 19, 3-[2-Carboxy-5-(1-hydroxycarbamoyl-propylsulfanyl)-pentyl]-benzoic acid], the IC50 worked out at 4 µM. This IC50 is about 10-fold higher than that of the compound before. On the same count and under the same terms, the result for `O=C(CSCCCC(Cc1ccc(C(=O)O)c(Br)c1)C(=O)O)NO` (stereo not drawn) [Compound 65, 2-Bromo-4-(2-carboxy-5-hydroxycarbamoylmethyl-sulfanylpentyl)-benzoic acid] reads 3 µM; that for `CC(C)(C)c1cc(CC(CCCC(=O)NO)C(=O)O)cc(C(=O)O)c1` (stereo not drawn) [Compound 71], 0.5 µM; that for `O=C(CCC(Cc1cccc(-c2cccc(C(=O)O)c2)c1)C(=O)O)NO` (stereo not drawn) [Compound 72], 0.05 µM. `O=C(CCC(Cc1ccccc1C(=O)O)C(=O)O)NO` (stereo not drawn) [Compound 73]: the IC50 stood at 2 µM. The same measure, in the same setting: under `CS(=O)(=O)c1ccc(CC(CCC(=O)NO)C(=O)O)cc1` (stereo not drawn) [Compound 74] stands 3 µM; under `O=C(CCC(Cc1ccc(C(=O)O)cc1)C(=O)O)NO` (stereo not drawn) [Compound 75, 4-[2-carboxy-5-(hydroxyamino)-5-oxopentyl]benzoic acid], 0.03 µM.

`O=CN(O)CCCCC(Cc1cccc(C(=O)O)c1)C(=O)O` (stereo not drawn) [Compound 76] displayed an IC50 of 100 µM. On the same count and under the same terms, the result for `O=CN(O)CCCC(Cc1cccc(C(=O)O)c1)C(=O)O` (stereo not drawn) [Compound 77] reads 2.22 µM; that for `O=CN(O)CCC(Cc1cccc(C(=O)O)c1)C(=O)O` (stereo not drawn) [Compound 78], 10.3 µM; that for `O=CN(O)CCC(Oc1cccc(C(=O)O)c1)C(=O)O` (stereo not drawn) [Compound 79], 65.5 µM.

Compound `O=C(O)CNC(=O)c1cc(C(=O)O)cc(C(=O)NO)c1` [Compound 81] gave an IC50 of 9 µM.

With `O=C(O)CCC(CCC(=O)NO)C(=O)O` (stereo not drawn) [Compound 83], the IC50 is 2 µM. On the same count and under the same terms, the result for `O=C(O)CCC(=O)NO` [Compound 84] reads 40 µM. The same measure, in the same setting: the result for `O=C(O)CCC(CCCC(=O)NO)C(=O)O` (stereo not drawn) [Compound 85] reads 0.9 µM; that for `O=C(O)CCC(C(=O)O)C(=O)NO` (stereo not drawn) [Compound 86], 4 µM; that for `O=C(Cc1ccc(CC(Cc2cccc(C(=O)O)c2)C(=O)O)cc1)NO` (stereo not drawn) [Compound 90], 25.8 µM.

For `O=C(O)CCC(Cc1cccc(C(=O)NO)c1)C(=O)O` (stereo not drawn) [Compound 94], the IC50 is 40 µM.

Another assay relates to STZ-diabetic animals. Put plainly: Diabetic neuropathy in STZ model (nerve conduction velocity). The assay is classed as in vivo, rats. To be noted: either dose (1 or 10 mg/kg), versus diabetic controls, FIGS. 10A and 10B. On the procedure:
Motor and sensory nerve conduction velocity was also measured in STZ-diabetic animals after 4, 8 and 12 weeks of treatment (see De Koning et al., supra, for a description of the experimental method). Briefly, stimulating needle electrodes were inserted close to the sciatic and tibial nerves with recording electrodes being placed subcutaneously over the distal foot muscles, in anesthetized rats.
With `O=C(O)CCC(CCS)C(=O)O` (stereo not drawn) [Compound D, 2-(2-sulfanylethyl)pentanedioic acid], the “motor and sensory nerve conduction velocities” value is “increased both motor and sensory nerve conduction velocities”.

The next assay deals with STZ-diabetic rats. Put plainly: Reversal of diabetic neuropathy in STZ model, delayed dosing: nerve conduction velocity. The assay is classed as in vivo. The note with it: daily p.o., within 8 weeks of dosing, persisted through 12 weeks, FIG. 21. On the procedure: (§1) Rats (200-225 grams) were injected with STZ (70 mg/kg) into the tail vein. Diabetes (>350 mg/dl) was confirmed in all rats, 4 weeks after STZ administration. Rats were left untreated until 35-49 days after STZ. Compound D (1, 3, or 10 mg/kg), Compound E (10 mg/kg), or vehicle were dosed daily p.o. following confirmation of hyperalgesia and/or nerve conduction velocity deficits. In separate experiments, onset of treatment was delayed until 60 to 90 days after STZ administration. Nerve conduction velocity or withdrawal response to thermal stimulation of hind paws was measured at intervals, usually bi-weekly for thermal response and monthly for nerve conduction velocity.
Sensory and motor nerve conduction velocities were evaluated using the method of De Koning and Gispen (Peptides 8: 415-422, 1987). Electrophysiological evaluation was carried out within one hour of dosing. Animals were anesthetized with isoflurane and stimulating needle electrodes were inserted close to the sciatic nerve at the sciatic notch and the tibial nerve near the ankle. Recording electrodes were placed over the foot muscles. Stimuli were applied and responses recorded. Motor and sensory nerve conduction velocities were calculated by measuring the distance between the sciatic notch and ankle sites, and the latency between the M-wave and the H-reflex.
Regarding `O=C(O)CCC(CCS)C(=O)O` (stereo not drawn) [Compound D, 2-(2-sulfanylethyl)pentanedioic acid], the “motor nerve conduction velocity” value is on record as “reversed the motor nerve conduction velocity towards normal”. With `O=C(O)c1cccc(CC(CCCS)C(=O)O)c1` (stereo not drawn) [Compound E, 3-carboxy-alpha-(3-mercaptopropyl)benzenepropanoic acid], the “motor nerve conduction velocity” value is “reversed the motor nerve conduction velocity towards normal”.

The same assay, now with this note: lower doses 1 and 3 mg/kg, treatment from 7 weeks post STZ, 8 weeks after dosing.
As for `O=C(O)CCC(CCS)C(=O)O` (stereo not drawn) [Compound D, 2-(2-sulfanylethyl)pentanedioic acid], the motor nerve conduction result is given as “remained unimproved”.

The same assay, now with this note: lower doses 1 and 3 mg/kg, treatment from 7 weeks post STZ, within 4 weeks of treatment.
Regarding `O=C(O)CCC(CCS)C(=O)O` (stereo not drawn) [Compound D, 2-(2-sulfanylethyl)pentanedioic acid], the sensory nerve conduction result is recorded as “significantly improved towards normal”.

The same assay, now with this note: untreated until 60 days after STZ, external CRO, FIGS. 26 and 27.
Take `O=C(O)CCC(CCS)C(=O)O` (stereo not drawn) [Compound D, 2-(2-sulfanylethyl)pentanedioic acid]: the “sensory and motor nerve conduction velocity deficits” value is recorded as “Partial reversal of both deficits”.

The subject of a further assay is STZ-induced diabetic rats. Description: Neuropathic pain in STZ model (thermal nociception, Hargreaves apparatus). To be noted: 10 mg/kg i.p. daily, treatment started 45 days post-STZ, FIGS. 7A and 7B. The assay is classed as in vivo, Male Sprague-Dawley rats. As to the method:
Male Sprague-Dawley rats (200-225 g) were rendered diabetic by intravenous administration of streptozotocin (“STZ”, 70 mg/kg in phosphate buffered saline). Diabetic animals were divided into five groups: one group receiving Compound A (10 mg/kg or 1 mg/kg), Compound D (10 mg/kg or 1 mg/kg) or vehicle. Another group of animals (non-STZ treated) served as non-diabetic controls. Drug/vehicle treatment was started in diabetic animals 45 days post-STZ administration. STZ-induced diabetic rats were tested for sensitivity to a heat source as soon as blood glucose levels rose to 320 mg/dl or above (30 days post STZ). The rats were then acclimated to a Hargreaves apparatus and thermal nociception was monitored using an infrared heat source directed into the dorsal surface of the hindpaw, and the time taken for the animal to remove its paw noted to the nearest 0.1 seconds (see Hargreaves et al., supra, for detailed experimental method). The intensity of the beam source was adjusted such that the mean latency for control animals (non-STZ treated) was approximately 10 seconds. Each animal was tested 8 times and the mean difference score (between mean non-diabetic control latency and mean diabetic latency) are graphically presented in FIGS. 7A and 7B.
With `O=C(O)CCC(CCS)C(=O)O` (stereo not drawn) [Compound D, 2-(2-sulfanylethyl)pentanedioic acid], the “hyperalgesic response (withdrawal latency difference score)” value is “completely reversed”.

A further assay concerns BB/W diabetic rats. Description: Progression of neuropathic pain and nerve conduction deficits in BB/W model. The class given is in vivo, Male BB/W rats. To be noted: 10 mg/kg daily, versus diabetic vehicle controls, from 8 weeks to six months, FIG. 12. The text has this:
Male BB/W rats (BRI, Mass) spontaneously develop a cell mediated autoimmune destruction of pancreatic B cells, resulting in onset of insulin-dependent (Type I) diabetes (Guberski 1994). […] This renders them valuable for experimental trials of new compounds for future treatments of this major disorder. In the present study, Compound D and Compound A were examined for their ability to alter the progression of diabetic neuropathy. The rats received daily injection of Compound D or Compound A (10 mg/kg i.p.) or vehicle, starting at the onset of diabetes (hyperglycemia) and up to 6 months thereafter. Another group of non-diabetic rats also receiving vehicle were tested. All animals were continuously monitored for body weight, urine volume, blood sugar and glycated haemoglobin. In the first month of the study, all animals were tested for thermal nociception in a Hargreaves apparatus, weekly. After the first month this was done biweekly and then monthly. The testing consists of directing an infrared heat source onto the dorsal surface of the rat hindpaw and noting the time taken for the animal to remove its paw (see Hargreaves et al., supra, for a description of the experimental method). Each animal was tested 8 times and the mean withdrawal latency noted.
Nerve conduction velocity was also measured every two weeks through the first eight weeks of treatment and every month thereafter through to the six months of treatment (see De Koning et al., Peptides, Vol. 8, No. 3, pp. 415-22 (1987) for a description of the experimental method). […] This was apparent starting at 8 weeks of treatment and persisted to a similar degree through to the six month termination point of the study.
Turning to `O=C(O)CCC(CCS)C(=O)O` (stereo not drawn) [Compound D, 2-(2-sulfanylethyl)pentanedioic acid], the nerve conduction velocity entry is given as “significantly less severe nerve conduction deficits”.

Staying with this assay, now noted: 10 mg/kg i.p. daily, versus diabetic vehicle-treated rats, from 4 weeks through six months of treatment, FIG. 11.
On to `O=C(O)CCC(CCS)C(=O)O` (stereo not drawn) [Compound D, 2-(2-sulfanylethyl)pentanedioic acid], for which the withdrawal latency entry is on record as “longer withdrawal latencies”.

The next assay has as its system STZ-diabetic rats. Put plainly: Reversal of diabetic neuropathy in STZ model, delayed dosing: thermal hyperalgesia. The note with it: daily p.o., treatment started 5 weeks post STZ, within two weeks of treatment, FIG. 20. The assay is classed as in vivo. On the procedure: as §1
Animals were acclimated to the apparatus for at least 5 min. An infrared source was placed under below the plantar surface of the rat hind-paw. The intensity of the source was adjusted so that latency for normal rats was about 10 secs. Animals were tested for thermal response latency according to the method of Hargreaves et al (Pain 77-88, 1988). Each animal was tested 8 times (4 each hind limb) and the latency of response recorded automatically to nearest 0.1 sec. An average of the last 4 measurements for each paw was calculated (8 total measurements) and noted for each rat.
As for `O=C(O)CCC(CCS)C(=O)O` (stereo not drawn) [Compound D, 2-(2-sulfanylethyl)pentanedioic acid], the “neuropathic hyperalgesia (withdrawal latency)” value is reported as “reversed towards normal”. Same read-out and setting: the result for `O=C(O)c1cccc(CC(CCCS)C(=O)O)c1` (stereo not drawn) [Compound E, 3-carboxy-alpha-(3-mercaptopropyl)benzenepropanoic acid] reads “reversed towards normal”.

Still in this assay, the particulars now being: lower doses 1 and 3 mg/kg, treatment initiated 7 weeks after STZ, FIG. 23.
For the compound `O=C(O)CCC(CCS)C(=O)O` (stereo not drawn) [Compound D, 2-(2-sulfanylethyl)pentanedioic acid], the neuropathic pain abnormalities result was “Significant reduction in pain abnormalities”.

The values above are taken from patent US6884907B2, “Hydroxamic acids and acyl hydroxamines as naaladase inhibitors” (Guilford Pharmaceuticals Inc., priority 2001, dated 2005).
